# According to patent US9845420B2, “Latent heat cold storage material” (Panasonic Intellectual Property Management Co., Ltd., priority 2015, dated 2017):
# Test: Saturated concentration (solubility) of crystalline powder compound in inorganic salt aqueous solution
# Assay type: physicochemical
# Conditions: for Saturated concentration: 25° C., aqueous solution containing only 15 wt % of sodium chloride and 10 wt % of ammonium chloride; for Saturating concentration: 25 degrees Celsius
# Experimental: The latent heat cold storage material of the present disclosure contains a crystalline powder as a supercooling inhibitor. The crystalline powder is formed of a compound having low solubility in an aqueous solution of an inorganic salt (hereinafter, also referred to as a low-solubility compound).
# In the present disclosure, the “solubility” refers to a limit of an amount at which a solute is dissolved in a certain amount of a solvent. The solubility is represented by a mass (g) of the solute which is dissolved in 100 g of the solvent at a certain temperature. […] In the present disclosure, the “saturated concentration” refers to a concentration of an aqueous solution in which a solute is dissolved up to the solubility. When the limit of an amount at which a solute is dissolved in 100 g of a solvent is 20 g, the solubility is 20 g, and the saturated concentration of the solute is 16.7 wt %.
Saturated concentration,Saturating concentration (aqueous solution containing 10 wt % of potassium chloride and 10 wt % of ammonium chloride),Saturating concentration (aqueous solution containing 12.5 wt % of potassium chloride and 12.5 wt % of ammonium chloride),"Solubility in the inorganic salt aqueous solution (normal temperature, inorganic salt concentration 10 to 30 wt %)",Compound
less than 0.08 wt %,–,–,–,"CCCCNC(=O)NCCCC [1,3-dibutylurea]"
3.0 wt %,7.0 wt %,less than 7.0 wt %,≤ 10 wt %,"CCNC(=O)NCC [1,3-diethylurea]"
less than 7.0 wt %,–,–,–,"O=C(NC1CCCCC1)NC1CCCCC1 [1,3-dicyclohexylurea]"
